Legend:
[1] = target: T1, AMPKα2 (recombinant AMPKα2β1γ1) (Homo sapiens, UniProt P54619+P54646+Q9Y478); assay: radiometric in vitro kinase assay with SAMS peptide and […]-ATP; type: biochemical
T1 construct: gene PRKAA2; recombinant AMPKα2β1γ1 heterotrimer (#P48-10H, SignalChem); with AMPKβ1, AMPKγ1

[2] = target: T2, AMPKα1 (recombinant AMPKα1β1γ1) (Homo sapiens, UniProt Q13131); assay: radiometric in vitro kinase assay with SAMS peptide and […]-ATP; Lineweaver-Burk; IC50 […]; type: biochemical
T2 construct: gene PRKAA1; recombinant AMPKα1β1γ1 heterotrimer (#P47-10H, SignalChem); with AMPKβ1, AMPKγ1
T2 sequence (Q13131 whole entry): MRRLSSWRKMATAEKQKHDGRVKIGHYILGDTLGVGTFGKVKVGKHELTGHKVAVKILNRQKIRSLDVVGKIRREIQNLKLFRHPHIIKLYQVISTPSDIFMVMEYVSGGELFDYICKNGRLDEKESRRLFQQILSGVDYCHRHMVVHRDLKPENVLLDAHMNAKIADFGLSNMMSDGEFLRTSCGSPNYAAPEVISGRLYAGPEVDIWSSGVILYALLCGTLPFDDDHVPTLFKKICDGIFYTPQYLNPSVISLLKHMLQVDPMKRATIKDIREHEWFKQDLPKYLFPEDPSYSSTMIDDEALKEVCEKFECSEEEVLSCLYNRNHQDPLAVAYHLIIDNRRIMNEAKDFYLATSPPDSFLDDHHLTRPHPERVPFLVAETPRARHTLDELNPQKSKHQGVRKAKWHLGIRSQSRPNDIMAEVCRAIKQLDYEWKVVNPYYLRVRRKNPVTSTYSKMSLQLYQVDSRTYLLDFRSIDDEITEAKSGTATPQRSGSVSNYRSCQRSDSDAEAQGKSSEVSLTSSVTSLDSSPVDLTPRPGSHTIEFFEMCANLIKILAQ
T2 sequence (Q9Y478 2-270 partner): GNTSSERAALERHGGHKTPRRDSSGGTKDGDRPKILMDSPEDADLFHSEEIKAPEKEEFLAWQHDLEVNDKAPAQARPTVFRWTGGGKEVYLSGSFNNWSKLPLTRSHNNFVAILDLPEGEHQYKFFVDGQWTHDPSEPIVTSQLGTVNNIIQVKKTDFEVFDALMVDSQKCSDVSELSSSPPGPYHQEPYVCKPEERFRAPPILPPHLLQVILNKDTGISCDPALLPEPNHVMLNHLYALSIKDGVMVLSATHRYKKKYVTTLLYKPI
T2 sequence (P54619 whole entry partner): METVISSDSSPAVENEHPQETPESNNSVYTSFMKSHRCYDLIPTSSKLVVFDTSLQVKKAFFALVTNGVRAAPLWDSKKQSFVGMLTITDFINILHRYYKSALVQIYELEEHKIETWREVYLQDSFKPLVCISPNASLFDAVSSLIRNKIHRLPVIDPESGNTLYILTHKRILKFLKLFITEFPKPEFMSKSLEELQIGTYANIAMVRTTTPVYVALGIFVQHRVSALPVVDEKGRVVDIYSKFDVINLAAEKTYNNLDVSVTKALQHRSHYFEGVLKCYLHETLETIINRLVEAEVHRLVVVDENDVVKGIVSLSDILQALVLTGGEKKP

T1 sequence (P54646 whole entry): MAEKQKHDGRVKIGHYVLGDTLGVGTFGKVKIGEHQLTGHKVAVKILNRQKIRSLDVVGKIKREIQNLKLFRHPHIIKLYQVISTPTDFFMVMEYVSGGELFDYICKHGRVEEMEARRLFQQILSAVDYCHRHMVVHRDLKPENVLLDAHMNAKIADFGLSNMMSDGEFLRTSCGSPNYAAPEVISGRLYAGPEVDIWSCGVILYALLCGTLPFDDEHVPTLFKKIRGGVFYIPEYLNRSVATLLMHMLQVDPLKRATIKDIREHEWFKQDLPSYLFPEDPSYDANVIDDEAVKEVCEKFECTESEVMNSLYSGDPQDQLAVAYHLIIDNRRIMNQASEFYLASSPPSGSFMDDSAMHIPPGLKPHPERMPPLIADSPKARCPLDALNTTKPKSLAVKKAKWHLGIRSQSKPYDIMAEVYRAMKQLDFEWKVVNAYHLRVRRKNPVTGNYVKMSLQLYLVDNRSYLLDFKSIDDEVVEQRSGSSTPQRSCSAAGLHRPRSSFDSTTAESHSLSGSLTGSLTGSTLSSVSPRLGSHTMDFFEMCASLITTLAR
T1 sequence (Q9Y478 2-270 partner): as the sequence (Q9Y478 2-270 partner) above
T1 sequence (P54619 whole entry partner): as the sequence (P54619 whole entry partner) above

How did the IC50 [1] turn out when `CN[C@@H]1C(O)[C@H]2O[C@@](C)([C@@H]1OC)n1c3ccccc3c3c4c(c5c6ccccc6n2c5c31)C(=O)NC4` (some centres unmarked) [5-OH-S, 5′-hydroxy-staurosporine] was run?
Its IC50 is 583 nM.

And the Ki [2]?
Its Ki is 347 nM.

Reference: paper PMC5830883, “A Functional Signature Ontology (FUSION) screen detects an AMPK inhibitor with selective toxicity toward human colon tumor cells” (Scientific Reports, 2018)
